In general, melting point refers to the temperature, or range, at which the solid turns liquid.

Turning to `CC(=O)OC[C@H]1O[C@@H](Cc2ccc([C@@H]3[C@@H](CCCc4ccc(F)cc4)C(=O)N3c3ccc(F)cc3)cc2)[C@H](OC(C)=O)[C@@H](OC(C)=O)[C@@H]1OC(C)=O` (relative stereo) [Compound 3, (3S,2R,4R,5R,6R)-2-[(4-{(4S*,3R*)-1-(4-Fluorophenyl)-3-[3-(4-fluorophenyl)propyl]-2-oxoazetidine-4-yl}phenyl)methyl]-4,5-diacetyloxy-6-(acetoxymethyl)perhydro-2H-pyran-3-ylacetate], the melting point fell in the range of 56 to 58 °C.

In the case of `O=C1[C@H](CCCc2ccc(F)cc2)[C@@H](c2ccc(C[C@@H]3O[C@H](CO)[C@@H](O)[C@H](O)[C@H]3O)cc2)N1c1ccc(Cl)cc1` (relative stereo) [Compound 4, (4S*,3R*)-4-(4-{[(2S,5S,3R,4R,6R)-3,4,5-Trihydroxy-6-(hydroxymethyl)perhydro-2H-pyran-2-yl]methyl}phenyl)-1-(4-chlorophenyl)-3-[3-(4-fluorophenyl)propyl]azetidine-2-one], the melting point was 76 to 78 °C. For `COc1ccc(N2C(=O)[C@H](CCCc3ccc(F)cc3)[C@H]2c2ccc(CC3O[C@H](CO)[C@@H](O)[C@H](O)[C@H]3O)cc2)cc1` (relative stereo) [Compound 5, (4S*,3R*)-4-(4-{[(5S,2R,3R,4R,6R)-3,4,5-Trihydroxy-6-(hydroxymethyl)perhydro-2H-pyran-2-yl]methyl}phenyl)-1-(4-methoxyphenyl)-3-[3-(4-fluorophenyl)propyl]azetidine-2-one], the melting point lay within 73 to 75 °C. In turn, `COc1ccc(N2C(=O)[C@H](CCCc3ccc(F)cc3)[C@H]2c2ccc(C[C@@H]3O[C@H](COC(C)=O)[C@@H](OC(C)=O)[C@H](OC(C)=O)[C@H]3OC(C)=O)cc2)cc1` (relative stereo) [Compound 6, (3S,2R,4R,5R,6R)-2-[(4-{(4S*,3R*)-1-(4-Methoxyphenyl)-3-[3-(4-fluorophenyl)propyl]-2-oxoazetidine-4-yl}phenyl)methyl]-4,5-diacetyloxy-6-(acetoxymethyl)perhydro-2H-pyran-3-ylacetate] came in with a melting point of 60 to 62 °C. `Cc1ccc(N2C(=O)[C@H](CCCc3ccc(F)cc3)[C@H]2c2ccc(CC3O[C@H](CO)[C@@H](O)[C@H](O)[C@H]3O)cc2)cc1` (relative stereo) [Compound 7, (4S*,3R*)-4-(4-{[(5S,2R,3R,4R,6R)-3,4,5-Trihydroxy-6-(hydroxymethyl)perhydro-2H-pyran-2-yl]methyl}phenyl)-1-(4-methylphenyl)-3-[3-(4-fluorophenyl)propyl]azetidine-2-one]: the melting point fell in the range of 80 to 82 °C.

With `CC(=O)OC[C@H]1O[C@@H](Cc2ccc([C@@H]3[C@@H](CCCc4ccc(F)cc4)C(=O)N3c3ccc(C)cc3)cc2)[C@H](OC(C)=O)[C@@H](OC(C)=O)[C@@H]1OC(C)=O` (relative stereo) [Compound 8, (3S,2R,4R,5R,6R)-2-[(4-{(4S*,3R*)-1-(4-Methylphenyl)-3-[3-(4-fluorophenyl)propyl]-2-oxoazetidine-4-yl}phenyl)methyl]-4,5-diacetyloxy-6-(acetoxymethyl)perhydro-2H-pyran-3-ylacetate], the melting point fell in the range of 56 to 58 °C. `O=C1[C@H](CCCc2ccc(F)cc2)[C@@H](c2ccc(CC3O[C@H](CO)[C@@H](O)[C@H](O)[C@H]3O)cc2)N1c1ccccc1` (relative stereo) [Compound 9, (4S*,3R*)-4-(4-{[(5S,2R,3R,4R,6R)-3,4,5-Trihydroxy-6-(hydroxymethyl)perhydro-2H-pyran-2-yl]methyl}phenyl)-1-phenyl-3-[3-(4-fluorophenyl)propyl]azetidine-2-one] had a melting point of 84 to 86 °C.

In turn, `CC(=O)OC[C@H]1O[C@@H](Cc2ccc([C@@H]3[C@@H](CCCc4ccc(F)cc4)C(=O)N3c3ccccc3)cc2)[C@H](OC(C)=O)[C@@H](OC(C)=O)[C@@H]1OC(C)=O` (relative stereo) [Compound 10, (3S,2R,4R,5R,6R)-2-[(4-{(4S*,3R*)-1-phenyl-3-[3-(4-fluorophenyl)propyl]-2-oxoazetidine-4-yl}phenyl)methyl]4,5-diacetyloxy-6-(acetoxymethyl)perhydro-2H-pyran-3-ylacetate] came in with a melting point of 60 to 61 °C.

`O=C1[C@H](CCCc2ccccc2)[C@@H](c2ccc(CC3O[C@H](CO)[C@@H](O)[C@H](O)[C@H]3O)cc2)N1c1ccc(F)cc1` (relative stereo) [Compound 11, (4S*,3R*)-4-(4-{[(5S,2R,3R,4R,6R)-3,4,5-Trihydroxy-6-(hydroxymethyl)perhydro-2H-pyran-2-yl]methyl}phenyl)-1-(4-fluorophenyl)-3-[3-(phenyl)propyl]azetidine-2-one] gave a melting point of 74 to 75 °C. `O=C1[C@H](CCOc2ccc(F)cc2)[C@@H](c2ccc(CC3O[C@H](CO)[C@@H](O)[C@H](O)[C@H]3O)cc2)N1c1ccc(F)cc1` (relative stereo) [Compound 12, (4S*,3R*)-4-(4-{[(5S,2R,3R,4R,6R)-3,4,5-Trihydroxy-6-(hydroxymethyl)perhydro-2H-pyran-2-yl]methyl}phenyl)-1-(4-fluorophenyl)-3-[2-(4-fluorophenoxy)ethyl]azetidine-2-one] gave a melting point of 65 to 67 °C.

Compound `O=C1[C@H](CCCc2ccc(F)cc2)[C@@H](c2ccc(OCC3O[C@H](CO)[C@@H](O)[C@H](O)[C@H]3O)cc2)N1c1ccc(F)cc1` (relative stereo) [Compound 14, (4S*,3R*)-4-(4-{[(4S,5S,2R,3R,6R)-3,4,5-Trihydroxy-6-(hydroxymethyl)perhydro-2H-pyran-2-yl]methoxy}phenyl)-1-(4-fluorophenyl)-3-[3-(4-fluorophenyl)propyl]azetidine-2-one] had a melting point of 61 to 62 °C. In the case of `O=C1[C@H](CCCc2ccc(F)cc2)[C@@H](c2ccc(OCC3O[C@H](CO)[C@@H](O)[C@H](O)[C@H]3O)cc2)N1Cc1ccccc1` (relative stereo) [Compound 16, (4S*,3R*)-4-(4-{[(4S,5S,2R,3R,6R)-3,4,5-Trihydroxy-6-(hydroxymethyl)perhydro-2H-pyran-2-yl]methoxy}phenyl)-1-phenylmethyl-3-[3-(4-fluorophenyl)propyl]azetidine-2-one], the melting point fell in the range of 73 to 75 °C. The compound `CCOC(=O)C(C)(C)Oc1ccc(N2C(=O)[C@H](CCCc3ccc(F)cc3)[C@H]2c2ccc(C[C@@H]3O[C@H](CO)[C@@H](O)[C@H](O)[C@H]3O)cc2)cc1` (relative stereo) [Compound 18, 2-{4-[(4S*,3R*)-4-{[(5S,2R,3R,4R,6R)-3,4,5-Trihydroxy-6-(hydroxymethyl)perhydro-2H-pyran-2-yl]methyl}phenyl-3-[3-(4-fluorophenyl)propyl]-2-oxoazetidinyl]phenoxy}-2-methylpropionic acid ethyl ester] yielded a melting point of 73 to 74 °C. Compound `CC(C)(Oc1ccc(N2C(=O)[C@H](CCCc3ccc(F)cc3)[C@H]2c2ccc(C[C@@H]3O[C@H](CO)[C@@H](O)[C@H](O)[C@H]3O)cc2)cc1)C(=O)O` (relative stereo) [Compound 19, 2-{4-[(4S*,3R*)-4-{[(5S,2R,3R,4R,6R)-3,4,5-Trihydroxy-6-(hydroxymethyl)perhydro-2H-pyran-2-yl]methyl}phenyl-3-[3-(4-fluorophenyl)propyl]-2-oxoazetidinyl]phenoxy}-2-methylpropionic acid] yielded a melting point of 170 to 172 °C. Regarding `CCOC(=O)C(C)(C)Oc1ccc(N2C(=O)[C@H](CCCc3ccc(C)cc3)[C@H]2c2ccc(C[C@@H]3O[C@H](CO)[C@@H](O)[C@H](O)[C@H]3O)cc2)cc1` (relative stereo) [Compound 20, 2-{4-[(4S*,3R*)-4-{[(5S,2R,3R,4R,6R)-3,4,5-Trihydroxy-6-(hydroxymethyl)perhydro-2H-pyran-2-yl]methyl}phenyl-3-[3-(4-methylphenyl)propyl]-2-oxoazetidinyl]phenoxy}-2-methylpropionic acid ethyl ester], the melting point lay within 76 to 78 °C. `Cc1ccc(CCC[C@H]2C(=O)N(c3ccc(OC(C)(C)C(=O)O)cc3)[C@@H]2c2ccc(C[C@@H]3O[C@H](CO)[C@@H](O)[C@H](O)[C@H]3O)cc2)cc1` (relative stereo) [Compound 21, 2-{4-[(4S*,3R*)-4-{[(5S,2R,3R,4R,6R)-3,4,5-Trihydroxy-6-(hydroxymethyl)perhydro-2H-pyran-2-yl]methyl}phenyl-3-[3-(4-methylphenyl)propyl]-2-oxoazetidinyl]phenoxy}-2-methylpropionic acid] gave a melting point of 161 to 162 °C. The compound `O=C1[C@H](CCCc2ccc(F)cc2)[C@H](c2ccc(CC3O[C@H](CO)[C@@H](O)[C@H](O)[C@H]3O)cc2)N1c1ccc(F)cc1` (relative stereo) [Compound 40, (4R*,3R*)-4-(4-{[(5S,2R,3R,4R,6R)-3,4,5-Trihydroxy-6-(hydroxymethyl)perhydro-2H-pyran-2-yl]methyl}phenyl)-3-[3-(4-fluorophenyl)propyl]-1-(4-fluorophenyl)azetidine-2-one] gave a melting point of 78 to 80 °C. For `O=C1[C@H](CCCc2ccc(F)cc2)[C@@H](c2ccc(CC3O[C@H](CO)[C@@H](O)[C@H](O)[C@H]3O)cc2)N1c1ccc(F)cc1` (stereo in doubt) [Compound 25, (4S,3R)-4-(4-{[(5S,2R,3R,4R,6R)-3,4,5-Trihydroxy-6-(hydroxymethyl)perhydro-2H-pyran-2-yl)methyl}phenyl)-1-(4-fluorophenyl)-3-[3-(4-fluorophenyl)propyl]azetidine-2-one], the melting point fell in the range of 67 to 69 °C. `O=C1[C@H](CC[C@H](O)c2ccc(F)cc2)[C@@H](c2ccc(C[C@@H]3O[C@H](CO)[C@@H](O)[C@H](O)[C@H]3O)cc2)N1c1ccc(F)cc1` [Compound 22, (4S,3R)-3-[(3S)-3-(4-Fluorophenyl)-3-hydroxypropyl]-4-(4-{[(2S,5S,3R,4R,6R)-3,4,5-trihydroxy-6-(hydroxymethyl)perhydro-2H-pyran-2-yl]methyl}phenyl)-1-(4-fluorophenyl)azetidine-2-one] came in with a melting point of 115 to 117 °C.

With `O=C(CC[C@H]1C(=O)N(c2ccc(F)cc2)[C@@H]1c1ccc(C[C@@H]2O[C@H](CO)[C@@H](O)[C@H](O)[C@H]2O)cc1)c1ccc(F)cc1` [Compound 26, (4S,3R)-4-(4-{[(2S,5S,3R,4R,6R)-3,4,5-Trihydroxy-6-(hydroxymethyl)perhydro-2H-pyran-2-yl]methyl}phenyl)-1-(4-fluorophenyl)-3-[3-(4-fluorophenyl)-3-oxopropyl]azetidine-2-one], the melting point lay within 78 to 80 °C.

Source of the values: US7045515B2, “β-lactam compounds process for reproducing the same and serum cholesterol-lowering agents containing the same” (Kotobuki Pharmaceutical Co., Ltd., priority 2001, dated 2006).
